Patent publication US7312210B2, “Pyrrolo[2,1-c][1,4]benzodiazepine compounds and processes for the preparation thereof” (Council of Scientific and Industrial Research, priority 2005, dated 2007)

Tests used:
Renal cancer cell lines = assay: NCI in vitro cytotoxicity screen (SRB assay), renal cell lines; format: cell-based, human; conditions: average of six to nine different cancer cell lines, 48 h exposure
Description: (§1) Biological Activity: In vitro biological activity studies were carried out at the National Cancer Institute (USA).
(§2) Cytotoxicity: The compounds 7-methoxy-8-{5-[4-(2-oxo-2H-4-chromenyl)piperazino]pentyl}-oxy-(11aS)-1,2,3,11a-5H-pyrrolo[2,1-c][1,4]benzodiazepin-5-one, 7-methoxy-8-{3-[4-(7-methoxy-8-methyl-2-oxo-2H-4-chromenyl)piperazino]propyl}-oxy-(11aS)-1,2,3,11a-5H-pyrrolo[2,1-c][1,4]benzodiazepin-5-one and 7-methoxy-8-{5-[4-(7-methoxy-8-methyl-2-oxo-2H-4-chromenyl)piperazino]pentyl}-oxy-(11aS)-1,2,3,11a-5H-pyrrolo[2,1-c][1,4]benzodiazepin-5-one were evaluated for in vitro anticancer activity against sixty human tumor cells derived from […] (leukemia, non-small-cell lung, colon, CNS, melanoma, ovarian, prostate, and breast cancer) as shown in (Table 2). For each compound, dose response curves for each cell line were measured at a minimum of five concentrations at 10 fold dilutions. A protocol of 48 h continuous drug exposure was used and a sulforhodamine B (SRB) protein assay was used to estimate cell viability or growth. The concentration causing 50% cell growth inhibition (GI50), total cell growth inhibition (TGI 0% growth) and 50% cell death (LC50, −50% growth) compared with the control was calculated.
(§3) Each cancer type represents the average of six to nine different cancer cell lines.

Breast cancer cell lines = assay: NCI in vitro cytotoxicity screen (SRB assay), breast cell lines; format: cell-based, human; conditions: average of six to nine different cancer cell lines, 48 h exposure
Description: as §1, §2, §3

[1] = test system: Ovarian cancer cell lines; assay: NCI in vitro cytotoxicity screen (SRB assay), ovarian cell lines; format: cell-based, human; conditions: average of six to nine different cancer cell lines, 48 h exposure
Description: as §1, §2, §3

[2] = test system: Melanoma cancer cell lines; assay: NCI in vitro cytotoxicity screen (SRB assay), melanoma cell lines; format: cell-based, human; conditions: average of six to nine different cancer cell lines, 48 h exposure
Description: as §1, §2, §3

[3] = test system: Non-small-cell-lung cancer cell lines; assay: NCI in vitro cytotoxicity screen (SRB assay), non-small-cell-lung cell lines; format: cell-based, human; conditions: average of six to nine different cancer cell lines, 48 h exposure
Description: as §1, §2, §3

[4] = test system: sixty human tumor cells derived from nine cancer types; assay: NCI in vitro cytotoxicity screen (SRB assay), mean graph midpoints over all cell lines; format: cell-based; conditions: for Log10LC50 mean graph midpoint (MG_MID): 50% cell death (−50% growth); for Log10LC50 mean graph midpoint (MG_MID) / Log10GI50 mean graph midpoint (MG_MID) / Log10TGI mean graph midpoint (MG_MID): 48 h continuous drug exposure, SRB protein assay, human tumor cell lines; for Log10GI50 mean graph midpoint (MG_MID): 50% cell growth inhibition; for Log10TGI mean graph midpoint (MG_MID): total cell growth inhibition (0% growth)
Description: as §1, §2

Colon cancer cell lines = assay: NCI in vitro cytotoxicity screen (SRB assay), colon cell lines; format: cell-based, human; conditions: average of six to nine different cancer cell lines, 48 h exposure
Description: as §1, §2, §3

[5] = test system: Prostate cancer cell lines; assay: NCI in vitro cytotoxicity screen (SRB assay), prostate cell lines; format: cell-based, human; conditions: average of six to nine different cancer cell lines, 48 h exposure
Description: as §1, §2, §3

CNS cancer cell lines = assay: NCI in vitro cytotoxicity screen (SRB assay), CNS cell lines; format: cell-based, human; conditions: average of six to nine different cancer cell lines, 48 h exposure
Description: as §1, §2, §3

[6] = test system: Leukemia cancer cell lines; assay: NCI in vitro cytotoxicity screen (SRB assay), leukemia cell lines; format: cell-based, human; conditions: average of six to nine different cancer cell lines, 48 h exposure
Description: as §1, §2, §3

| Structure (SMILES) | Log10LC50 concentration in mol/L causing 50% lethality (Renal cancer cell lines) | Log10LC50 concentration in mol/L causing 50% lethality (Breast cancer cell lines) | Log10LC50 concentration in mol/L causing 50% lethality [1] | Log10LC50 concentration in mol/L causing 50% lethality [2] | Log10LC50 concentration in mol/L causing 50% lethality [3] | Log10LC50 mean graph midpoint (MG_MID) [4] | Log10GI50 mean graph midpoint (MG_MID) [4] | Log10TGI mean graph midpoint (MG_MID) [4] | mean graph pattern: profile of activity and selectivity ([4]; various cell lines) | Log10LC50 concentration in mol/L causing 50% lethality (Colon cancer cell lines) | Log10LC50 concentration in mol/L causing 50% lethality [5] | Log10LC50 concentration in mol/L causing 50% lethality (CNS cancer cell lines) | Log10LC50 concentration in mol/L causing 50% lethality [6] |
| --- | --- | --- | --- | --- | --- | --- | --- | --- | --- | --- | --- | --- | --- |
| COc1cc2c(cc1OCCCCCN1CCN(c3cc(=O)oc4ccccc34)CC1)N=C[C@@H]1CCCN1C2=O [Compound 5c, 7-Methoxy-8-{5-[4-(2-oxo-2H-4-chromenyl)piperazino]pentyl}-oxy-(11aS)-1,2,3,11a-5H-pyrrolo[2,1-c][1,4]benzodiazepin-5-one] | −5.26 mol/L | −4.71 mol/L | −5.44 mol/L | −5.68 mol/L | −4.92 mol/L | −4.99 | −7.68 | −6.66 | interesting profile of activity and selectivity for various cell lines | −5.24 mol/L | −4.53 mol/L | −4.70 mol/L | −5.03 mol/L |
| COc1cc2c(cc1OCCCN1CCN(c3cc(=O)oc4c(C)c(OC)ccc34)CC1)N=C[C@@H]1CCCN1C2=O [Compound 5d, 7-Methoxy-8-{3-[4-(7-methoxy-8-methyl-2-oxo-2H-4-chromenyl)piperazino]propyl}-oxy-(11aS)-1,2,3,11a-5H-pyrrolo[2,1-c][1,4]benzodiazepin-5-one] | −5.29 mol/L | −4.11 mol/L | −4.00 mol/L | −4.34 mol/L | −4.23 mol/L | −4.19 | −5.68 | −4.86 |  | −4.87 mol/L | −4.00 mol/L | −4.11 mol/L | −4.22 mol/L |
| COc1cc2c(cc1OCCCCCN1CCN(c3cc(=O)oc4c(C)c(OC)ccc34)CC1)N=C[C@@H]1CCCN1C2=O [Compound 5f, 7-Methoxy-8-{5-[4-(7-methoxy-8-methyl-2-oxo-2H-4-chromenyl)piperazino]pentyl}-oxy-(11aS)-1,2,3,11a-5H-pyrrolo[2,1-c][1,4]benzodiazepin-5-one] | −5.17 mol/L | −4.52 mol/L | −4.28 mol/L | −5.29 mol/L | −4.87 mol/L | −4.96 | −6.49 | −5.85 |  | −5.41 mol/L | −4.85 mol/L | −4.63 mol/L | −5.39 mol/L |
